Experimental data reported in ChEMBL document CHEMBL1949543, “Synthesis and evaluation of novel monosubstituted sulfonylurea derivatives as antituberculosis agents” (Eur J Med Chem, 2012).
Converted amounts (≈) assume the structure as drawn.

Key:
[1] = test system: Mycobacterium tuberculosis; assay: Antituberculosis activity against Mycobacterium tuberculosis H37Rv ATCC 27294; type: functional
Mycobacterium kansasii = assay: Antituberculosis activity against Mycobacterium kansasii ATCC 12478; type: functional
THP-1 = assay: Cytotoxicity against human THP1 cells after 72 hrs by MTT assay; type: cell-based; settings: THP-1, 72 h
Mycobacterium avium = assay: Antituberculosis activity against Mycobacterium avium ATCC 25291; type: functional, Mycobacterium avium subsp. avium ATCC 25291
[2] = test system: Mycobacterium tuberculosis; assay: Antituberculosis activity against Mycobacterium tuberculosis isolate A; type: functional
[3] = Selectivity ratio of IC50 for human THP1 cells to MIC for Mycobacterium tuberculosis H37Rv ATCC 27294; type: functional, THP-1
[4] = Selectivity ratio of IC50 for human THP1 cells to MIC for Mycobacterium tuberculosis isolate A; type: functional, THP-1

SMILES | MIC [1] [µg/mL] | further results
CC(=O)Nc1ccc(Cl)c(S(=O)(=O)NC(=O)Nc2nccc(C)n2)c1 | > 100 | 
Cc1ccnc(NC(=O)NS(=O)(=O)c2cc(NC(=O)CCl)ccc2Cl)n1 | 10 (≈ 23.9 µM) | MIC (Mycobacterium kansasii): 20 µg/mL (≈ 47.8 µM); IC50 (THP-1): 138 µg/mL (≈ 330 µM); MIC (Mycobacterium avium): > 100 µg/mL; MIC [2]: 10 µg/mL (≈ 23.9 µM); Selectivity ratio [3]: 10; Selectivity ratio [4]: 10
Cc1ccnc(NC(=O)NS(=O)(=O)c2cc(NC(=O)C(C)C)ccc2Cl)n1 | > 100 | 
Cc1ccnc(NC(=O)NS(=O)(=O)c2cc(NC(=O)C3CC3)ccc2Cl)n1 | > 100 | 
Cc1ccnc(NC(=O)NS(=O)(=O)c2cc(NC(=O)C(C)(C)C)ccc2Cl)n1 | > 100 | 
C=CC(=O)Nc1ccc(Cl)c(S(=O)(=O)NC(=O)Nc2nccc(C)n2)c1 | 20 (≈ 50.5 µM) | 
Cc1ccnc(NC(=O)NS(=O)(=O)c2cc(NC(=O)C(C)Cl)ccc2Cl)n1 (stereo not drawn) | > 100 | 
CC(=O)OCC(=O)Nc1ccc(Cl)c(S(=O)(=O)NC(=O)Nc2nccc(C)n2)c1 | > 100 | 
CCOC(=O)C(=O)Nc1ccc(Cl)c(S(=O)(=O)NC(=O)Nc2nccc(C)n2)c1 | > 100 | 
Cc1ccnc(NC(=O)NS(=O)(=O)c2cc(NC(=O)C(F)(F)C(F)(F)C(F)(F)F)ccc2Cl)n1 | > 100 | 
Cc1ccnc(NC(=O)NS(=O)(=O)c2cc(NC(=O)c3ccccc3)ccc2Cl)n1 | 100 (≈ 224 µM) | 
Cc1ccnc(NC(=O)NS(=O)(=O)c2cc(NC(=O)C(F)(F)F)ccc2Cl)n1 | > 100 | 
Cc1ccnc(NC(=O)NS(=O)(=O)c2cc(NC=O)ccc2Cl)n1 | > 100 | 
COc1ccnc(NC(=O)NS(=O)(=O)c2cc(NC(C)=O)ccc2Cl)n1 | > 100 | 
COc1ccnc(NC(=O)NS(=O)(=O)c2cc(NC(=O)CCl)ccc2Cl)n1 | 10 (≈ 23 µM) | MIC (Mycobacterium kansasii): 20 µg/mL (≈ 46.1 µM); IC50 (THP-1): 180 µg/mL (≈ 414 µM); MIC (Mycobacterium avium): > 100 µg/mL; MIC [2]: 10 µg/mL (≈ 23 µM); Selectivity ratio [3]: 10; Selectivity ratio [4]: 10
COc1ccnc(NC(=O)NS(=O)(=O)c2cc(NC(=O)C(C)C)ccc2Cl)n1 | > 100 | 
COc1ccnc(NC(=O)NS(=O)(=O)c2cc(NC(=O)C3CC3)ccc2Cl)n1 | > 100 | 
COc1ccnc(NC(=O)NS(=O)(=O)c2cc(NC(=O)C(C)(C)C)ccc2Cl)n1 | > 100 | 
C=CC(=O)Nc1ccc(Cl)c(S(=O)(=O)NC(=O)Nc2nccc(OC)n2)c1 | 40 (≈ 97.1 µM) | 
COc1ccnc(NC(=O)NS(=O)(=O)c2cc(NC(=O)C(C)Cl)ccc2Cl)n1 (stereo not drawn) | > 100 | 
COc1ccnc(NC(=O)NS(=O)(=O)c2cc(NC(=O)COC(C)=O)ccc2Cl)n1 | > 100 | 
CCOC(=O)C(=O)Nc1ccc(Cl)c(S(=O)(=O)NC(=O)Nc2nccc(OC)n2)c1 | > 100 | 
COc1ccnc(NC(=O)NS(=O)(=O)c2cc(NC(=O)C(F)(F)C(F)(F)C(F)(F)F)ccc2Cl)n1 | > 100 | 
COc1ccnc(NC(=O)NS(=O)(=O)c2cc(NC(=O)C(F)(F)F)ccc2Cl)n1 | > 100 | 
COc1ccnc(NC(=O)NS(=O)(=O)c2cc(NC=O)ccc2Cl)n1 | > 100 | 
COC(=O)c1ccccc1S(=O)(=O)NC(=O)Nc1nc(C)cc(C)n1 [SULFOMETURON METHYL] | 10 (≈ 27.4 µM) | 
